In EP3915971A1, “PHENYL-S(O)N-PHENYLAMIDINES AND THE USE THEREOF AS FUNGICIDES” (Bayer Aktiengesellschaft, priority 2020, dated 2021):

Key:
[1] = LogP measurement by HPLC on reversed phase columns (EEC directive 79/831 Annex V.A8); type: physicochemical
Summary of the method: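 Reversed-phase HPLC with LC-UV per EEC directive 79/831 Annex V.A8, linear 10–95% acetonitrile gradient. Aqueous phase was 0.1% formic acid (acidic), 0.001 molar ammonium acetate (neutral) or 0.1% phosphoric acid (acidic), by method.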

Phakospora pachyrhizi = assay: in vivo preventive test on Phakospora pachyrhizi (soybean rust); conditions: for pest or weed control at 500 ppm: Glycine max, 264 h, 500 ppm of active ingredient, preventive spray on young soybean plants, inoculation after 24 hours, evaluated 11 days after inoculation, 0% = control plants, 100% = no disease, read-out: efficacy
Method: Example A: in vivo preventive test on Phakospora pachyrhizi (soybean rust) [table] The active ingredients were made soluble and homogenized in a mixture of Dimethyl sulfoxide/Acetone/ /Tween® 80 and then diluted in water to the desired concentration. The young plants of soybean were treated by spraying the active ingredient prepared as described above. Control plants were treated only with an aqueous solution of Acetone/Dimethyl sulfoxide/ Tween® 80. After 24 hours, the plants were contaminated by spraying the leaves with an aqueous suspension of Phakospora pachyrhizi spores. The contaminated soybean plants were incubated for 24 hours at 24°C and at 100% relative humidity and then for 10 days at 24°C and at 70-80% relative humidity. The test was evaluated 11 days after the inoculation. 0% means an efficacy which corresponds to that of the control plants while an efficacy of 100% means that no disease was observed.

[2] = reversed phase HPLC columns, method [a]: LC-UV, acidic range, 0.1% formic acid in water and acetonitrile as eluent (linear gradient 10% to 95% acetonitrile)
[3] = reversed phase HPLC columns, method [b]: LC-UV, neutral range, 0.001 molar ammonium acetate solution in water and acetonitrile as eluent (linear gradient 10% to 95% acetonitrile)

Compound: CCc1cc(Sc2ccccc2C#N)c(C)cc1N=CN(C)CC [Example I-102, N'-[4-[(2-cyanophenyl)thio]-2-ethyl-5-methylphenyl]-N-ethyl-N-methylmethanimidamide]
- chromatographic logP [1, 2]: 1.58
- chromatographic logP [1, 3]: 4.95
- pest or weed control at 500 ppm (Phakospora pachyrhizi): ≥ 70%

Compound: CCN(C)C=Nc1cc(C)c(Sc2ccccc2C)cc1C1CC1 [Example I-085, N'-[2-cyclopropyl-5-methyl-4-[(2-methylphenyl)thio]phenyl]-N-ethyl-N-methylmethanimidamide]
- chromatographic logP [1, 2]: 1.99
- pest or weed control at 500 ppm (Phakospora pachyrhizi): ≥ 70%

Compound: CCN(C)C=Nc1cc(C)c(Sc2ccccc2Cl)cc1C [Example I-005, N'-[4-[(2-chlorophenyl)thio]-2,5-dimethylphenyl]-N-ethyl-N-methylmethanimidamide]
- chromatographic logP [1, 2]: 2.16
- pest or weed control at 500 ppm (Phakospora pachyrhizi): ≥ 70%

Compound: CCN(C)C=Nc1cc(C)c(Sc2ccccc2C#N)cc1C1CC1 [Example I-100, N'-[4-[(2-cyanophenyl)thio]-2-cyclopropyl-5-methylphenyl]-N-ethyl-N-methylmethanimidamide]
- chromatographic logP [1, 2]: 1.6
- chromatographic logP [1, 3]: 4.74
- pest or weed control at 500 ppm (Phakospora pachyrhizi): ≥ 70%

Compound: CCc1cc(Sc2ccccc2F)c(C)cc1N=CN(C)CC [Example I-087]
- chromatographic logP ([1]; method [a]: LC-UV, acidic range, 0.1% formic acid in water and acetonitrile as eluent (linear gradient 10% to 95% acetonitrile)): 1.77
- efficacy (Phakospora pachyrhizi; 500 ppm): at least 70%

Compound: CCc1cc(Sc2ccccc2Cl)c(C)cc1N=CN(C)CC [Example I-103, N'-[4-[(2-chlorophenyl)thio]-2-ethyl-5-methylphenyl]-N-ethyl-N-methylmethanimidamide]
- chromatographic logP [1, 2]: 1.99
- chromatographic logP [1, 3]: 6.2
- pest or weed control at 500 ppm (Phakospora pachyrhizi): ≥ 70%

Compound: CCN(C)C=Nc1cc(C)c(Sc2ccccc2Cl)cc1C1CC1 [Example I-099, N'-[4-[(2-chlorophenyl)thio]-2-cyclopropyl-5-methylphenyl]-N-ethyl-N-methylmethanimidamide]
- chromatographic logP [1, 2]: 1.99
- pest or weed control at 500 ppm (Phakospora pachyrhizi): ≥ 70%

Compound: CCN(C)C=Nc1cc(Br)c(Sc2ccccc2F)cc1C [Example I-046, N'-[5-bromo-4-[(2-fluorophenyl)thio]-2-methylphenyl]-N-ethyl-N-methylmethanimidamide]
- chromatographic logP [1, 2]: 1.66
- pest or weed control at 500 ppm (Phakospora pachyrhizi): ≥ 70%

Compound: CCN(C)C=Nc1cc(Br)c(S(=O)(=O)c2ccccc2C)cc1C [Example I-045, N'-[5-bromo-2-methyl-4-(2-methylphenyl)sulfonylphenyl]-N-ethyl-N-methylmethanimidamide]
- chromatographic logP [1, 2]: 1.53
- pest or weed control at 500 ppm (Phakospora pachyrhizi): ≥ 70%

Compound: CCN(C)C=Nc1cc(F)c(Sc2ccccc2Cl)cc1C [Example I-023, N'-[4-[(2-chlorophenyl)thio]-5-fluoro-2-methylphenyl]-N-ethyl-N-methylmethanimidamide]
- chromatographic logP [1, 2]: 1.69
- pest or weed control at 500 ppm (Phakospora pachyrhizi): ≥ 70%

Compound: CCN(C)C=Nc1cc(C)c(Sc2ccccc2)cc1C1CC1 [Example I-090, N'-(2-cyclopropyl-5-methyl-4-phenylsulfanylphenyl)-N-ethyl-N-methylmethanimidamide]
- chromatographic logP [1, 2]: 1.77
- pest or weed control at 500 ppm (Phakospora pachyrhizi): ≥ 70%

Compound: CCN(C)C=Nc1cc(C#N)c(Sc2ccccc2Cl)cc1C [Example I-060, N'-[4-[(2-chlorophenyl)thio]-5-cyano-2-methylphenyl]-N-ethyl-N-methylmethanimidamide]
- chromatographic logP [1, 2]: 1.66
- pest or weed control at 500 ppm (Phakospora pachyrhizi): ≥ 70%

Compound: CCN(C)C=Nc1cc(C)c(Sc2ccccc2F)cc1Cl [Example I-008, N'-[2-chloro-4-[(2-fluorophenyl)thio]-5-methylphenyl]-N-ethyl-N-methylmethanimidamide]
- chromatographic logP [1, 2]: 1.6
- pest or weed control at 500 ppm (Phakospora pachyrhizi): ≥ 70%

Compound: CCN(C)C=Nc1cc(Cl)c(Sc2ccccc2)cc1C [Example I-041, N'-(5-chloro-2-methyl-4-phenylsulfanylphenyl)-N-ethyl-N-methylmethanimidamide]
- chromatographic logP [1, 2]: 1.63
- pest or weed control at 500 ppm (Phakospora pachyrhizi): ≥ 70%

Compound: CCN(C)C=Nc1cc(C)c(Sc2ccccc2F)cc1C(C)C [Example I-082, N-ethyl-N'-[4-[(2-fluorophenyl)thio]-2-isopropyl-5-methylphenyl]-N-methylmethanimidamide]
- chromatographic logP [1, 2]: 1.9
- pest or weed control at 500 ppm (Phakospora pachyrhizi): ≥ 70%

Compound: CCN(C)C=Nc1cc(Cl)c(Sc2ccccc2C#N)cc1C [Example I-067, N'-[5-chloro-4-[(2-cyanophenyl)thio]-2-methylphenyl]-N-ethyl-N-methylmethanimidamide]
- chromatographic logP [1, 2]: 1.53
- pest or weed control at 500 ppm (Phakospora pachyrhizi): ≥ 70%
